Read-outs that look alike come from different tables or passages of the source.
Target: human SSTR2 (Homo sapiens (Human), UniProt P30874)
Experiment: Human SSTR2 intracellular cAMP functional assay for agonists (HTRF)
Format: cell-based
Method: Functional Assay for SSTR2 Agonists
General overview: All five SSTR subtypes are Gi coupled G-protein coupled receptors (GPCRs) that lead to decreases in intracellular cyclic AMP (cAMP) when activated by an agonist. […] Human SSTR2 intracellular cAMP assay is described below. The human SSTR1, 3, 4 and 5 assays follow the same protocol of SSTR2.
The cells are cultured at 37° C., 5% CO2 and 95% humidity. […] The cells are incubated for 20 minutes at 37° C. […] The cells are treated with 50 μL of lysis buffer (HRTF cAMP kit, Cisbio). […] The time-resolved fluorescent signal is read with a Tecan M1000Pro multiplate reader. The intracellular cAMP concentrations are calculated by regression to a standard curve and are plotted vs. the concentration of the compounds of the invention and the EC50 of the compounds are calculated using standard methods. All data manipulations are in GraphPad Prism v6.

[1] = CHO-K1 cells stably expressing human SSTR2, NKH477-stimulated cAMP, read-out: EC50 (inhibition of cAMP activities via human SST2R)

Sequence of human SSTR2 (P30874 whole entry): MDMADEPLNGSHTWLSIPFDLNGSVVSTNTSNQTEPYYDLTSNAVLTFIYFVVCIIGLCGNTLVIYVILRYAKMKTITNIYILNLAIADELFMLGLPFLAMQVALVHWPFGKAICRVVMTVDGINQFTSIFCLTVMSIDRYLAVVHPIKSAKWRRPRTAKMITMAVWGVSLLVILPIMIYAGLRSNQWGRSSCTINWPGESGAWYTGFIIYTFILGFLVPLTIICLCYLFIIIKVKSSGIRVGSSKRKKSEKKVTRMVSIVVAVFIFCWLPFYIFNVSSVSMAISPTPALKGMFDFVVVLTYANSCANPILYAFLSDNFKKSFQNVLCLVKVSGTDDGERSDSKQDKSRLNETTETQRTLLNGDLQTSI

Molecule	EC50 [1]	EC50
3-[4-(4-aminopiperidin-1-yl)-7-chloro-3-(3,5-dichlorophenyl)cinnolin-6-yl]-5-fluoro-2-hydroxybenzonitrile [1-27]	< 10 nM	–
Oc1c(F)cccc1-c1ccc2ncc(-c3cc(F)cc(F)c3)c(N3CC[C@H]4NCCO[C@@H]4C3)c2c1 (racemic) [2-144, trans-2-[3-(3,5-difluorophenyl)-4-{octahydro-1H-pyrido[3,4-b]morpholin-6-yl}quinolin-6-yl]-6-fluorophenol]	< 10 nM	–
COCCOc1c(C#N)cccc1-c1ccc2ncc(-c3cc(C)cc(F)c3)c(N3CC[C@@H](N)[C@@H](O)C3)c2c1 (racemic) [2-224, 3-{4-[cis-4-amino-3-hydroxypiperidin-1-yl]-3-(3-fluoro-5-methylphenyl)quinolin-6-yl}-2-(2-methoxyethoxy)benzonitrile]	< 10 nM	–
Cc1cc(F)cc(-c2cnc3ccc(-c4cccc(F)c4/C=N/O)cc3c2N2CC[C@@H](N)[C@@H](O)C2)c1 (racemic) [2-227, cis-4-amino-1-(6-{3-fluoro-2-[(hydroxyimino)methyl]phenyl}-3-(3-fluoro-5-methylphenyl)quinolin-4-yl)piperidin-3-ol]	< 10 nM	–
CO/N=C/c1cccc(-c2ccc3ncc(-c4cc(F)cc(F)c4)c(N4CC[C@H]5NCCO[C@@H]5C4)c3c2)c1O (racemic) [2-243, 2-{4-[trans-octahydro-1H-pyrido[3,4-b]morpholin-6-yl]-3-(3,5-difluorophenyl)quinolin-6-yl}-6-(methoxyiminomethyl)phenol]	< 10 nM	–
Cc1cc(F)cc(-c2nnc3cc(Cl)c(-c4cc(F)cc(C(N)=O)c4)cc3c2N2CC[C@@H](N)[C@H](F)C2)c1 (relative stereo) [1-5, 3-{4-[trans-4-amino-3-fluoropiperidin-1-yl]-7-chloro-3-(3-fluoro-5-methylphenyl)cinnolin-6-yl}-5-fluorobenzamide]	< 10 nM	–
Cc1cc(F)cc(-c2nnc3cc(Cl)c(-c4cc(F)cc(C(N)=O)c4)cc3c2N2CC[C@H](N)[C@H](F)C2)c1 (relative stereo) [1-6, 3-{4-[cis-4-amino-3-fluoropiperidin-1-yl]-7-chloro-3-(3-fluoro-5-methylphenyl)cinnolin-6-yl}-5-fluorobenzamide]	< 10 nM	–
CO[C@@H]1CN(c2c(-c3cc(C)cc(F)c3)nnc3cc(Cl)c(-c4cc(F)cc(C(N)=O)c4)cc23)CC[C@H]1N (relative stereo) [1-10, 3-{4-[trans-4-amino-3-methoxypiperidin-1-yl]-7-chloro-3-(3-fluoro-5-methylphenyl)cinnolin-6-yl}-5-fluorobenzamide]	< 10 nM	–
CO[C@@H]1CN(c2c(-c3cc(F)cc(F)c3)cnc3ccc(-c4cccc(C#N)c4O)cc23)CC[C@H]1N (relative stereo) [2-3, 3-{4-[trans-4-amino-3-methoxypiperidin-1-yl]-3-(3,5-difluorophenyl)quinolin-6-yl}-2-hydroxybenzonitrile]	–	< 10 nM
CO[C@@H]1CN(c2c(-c3cc(F)cc(F)c3)cnc3ccc(-c4cccc(C#N)c4)cc23)CC[C@H]1N (relative stereo) [2-4, 3-{4-[trans-4-amino-3-methoxypiperidin-1-yl]-3-(3,5-difluorophenyl)quinolin-6-yl}benzonitrile]	< 10 nM	–
N#Cc1cccc(-c2ccc3ncc(-c4cc(F)cc(F)c4)c(N4CC[C@H]5NCCO[C@@H]5C4)c3c2)c1O (relative stereo) [2-19, 3-{4-[trans-octahydro-1H-pyrido[3,4-b]morpholin-6-yl]-3-(3,5-difluorophenyl)quinolin-6-yl}-2-hydroxybenzonitrile]	< 10 nM	–
Cc1cc(F)cc(-c2cnc3ccc(-c4cccc(C#N)c4O)cc3c2N2CC[C@H]3NCCO[C@@H]3C2)c1 (relative stereo) [2-20]	< 10 nM	–
COCOc1c(C#N)cccc1-c1ccc2ncc(-c3cc(F)cc(F)c3)c(N3CC[C@H](N)[C@H](O)C3)c2c1 (relative stereo) [2-58, 3-{4-[cis-4-amino-3-hydroxypiperidin-1-yl]-3-(3,5-difluorophenyl)quinolin-6-yl}-2-(methoxymethoxy)benzonitrile]	< 10 nM	–
N#Cc1cccc(-c2ccc3ncc(-c4cc(F)cc(F)c4)c(N4CC[C@@H](N)[C@@H](O)C4)c3c2)c1O (relative stereo) [2-60, cis-3-{4-[4-amino-3-hydroxypiperidin-1-yl]-3-(3,5-difluorophenyl)quinolin-6-yl}-2-hydroxybenzonitrile]	–	< 10 nM
N#Cc1cc(F)cc(-c2ccc3ncc(-c4cc(F)cc(F)c4)c(N4CC[C@H](N)[C@H](O)C4)c3c2)c1O (relative stereo) [2-63, 3-{4-[cis-4-amino-3-hydroxypiperidin-1-yl]-3-(3,5-difluorophenyl)quinolin-6-yl}-5-fluoro-2-hydroxybenzonitrile]	< 10 nM	–
N#Cc1cccc(-c2ccc3ncc(-c4cc(F)cc(F)c4)c(N4CC[C@@H](N)[C@H](C#N)C4)c3c2)c1O (relative stereo) [2-92, trans-4-amino-1-[6-(3-cyano-2-hydroxyphenyl)-3-(3,5-difluorophenyl)quinolin-4-yl]piperidine-3-carbonitrile]	100 to 1000 nM	–
N#Cc1cccc(-c2ccc3ncc(-c4cc(F)cc(F)c4)c(N4CC[C@H](N)[C@H](C#N)C4)c3c2)c1O (relative stereo) [2-94, cis-4-amino-1-[6-(3-cyano-2-hydroxyphenyl)-3-(3,5-difluorophenyl)quinolin-4-yl]piperidine-3-carbonitrile]	10 to 100 nM	–
N#Cc1cc(F)c(F)c(-c2ccc3ncc(-c4cc(F)cc(F)c4)c(N4CC[C@H]5NCCO[C@@H]5C4)c3c2)c1O (relative stereo) [2-100, 3-{4-[trans-octahydro-1H-pyrido[3,4-b]morpholin-6-yl]-3-(3,5-difluorophenyl)quinolin-6-yl}-4,5-difluoro-2-hydroxybenzonitrile]	10 to 100 nM	–
COC(=O)[C@@H]1CN(c2c(-c3cc(F)cc(F)c3)cnc3ccc(-c4cccc(C#N)c4O)cc23)CC[C@H]1N (relative stereo) [2-143, methyl trans-4-amino-1-[6-(3-cyano-2-hydroxyphenyl)-3-(3,5-difluorophenyl)quinolin-4-yl]piperidine-3-carboxylate]	< 10 nM	–
N#Cc1cccc(-c2ccc3ncc(-c4cc(F)cc(F)c4)c(N4CC[C@@H](N)[C@H](C(N)=O)C4)c3c2)c1O (relative stereo) [2-146, trans-4-Amino-1-[6-(3-cyano-2-hydroxyphenyl)-3-(3,5-difluorophenyl)quinolin-4-yl]piperidine-3-carboxamide]	> 1000 nM	–
CNC(=O)[C@@H]1CN(c2c(-c3cc(F)cc(F)c3)cnc3ccc(-c4cccc(C#N)c4O)cc23)CC[C@H]1N (relative stereo) [2-149, trans-4-Amino-1-[6-(3-cyano-2-hydroxyphenyl)-3-(3,5-difluorophenyl)quinolin-4-yl]-N-methylpiperidine-3-carboxamide]	–	100 to 1000 nM
CN(C)C(=O)[C@@H]1CN(c2c(-c3cc(F)cc(F)c3)cnc3ccc(-c4cccc(C#N)c4O)cc23)CC[C@H]1N (relative stereo) [2-151, trans-4-amino-1-[6-(3-cyano-2-hydroxyphenyl)-3-(3,5-difluorophenyl)quinolin-4-yl]-N,N-dimethylpiperidine-3-carboxamide]	100 to 1000 nM	–
COC(=O)[C@@H]1CN(c2c(-c3cc(F)cc(F)c3)cnc3ccc(-c4cccc(C#N)c4O)cc23)CC[C@H]1N (relative stereo) [2-170, methyl (trans)-4-amino-1-[6-(3-cyano-2-hydroxyphenyl)-3-(3,5-difluorophenyl)quinolin-4-yl]piperidine-3-carboxylate]	–	100 to 1000 nM
Cc1cc(F)cc(-c2cnc3ccc(-c4cc(F)cc(C#N)c4O)cc3c2N2CC[C@H](N)[C@H](O)C2)c1 (relative stereo) [2-219, cis-3-{4-[4-amino-3-hydroxypiperidin-1-yl]-3-(3-fluoro-5-methylphenyl)quinolin-6-yl}-5-fluoro-2-hydroxybenzonitrile]	< 10 nM	–
COCCOc1c(C#N)cc(F)cc1-c1ccc2ncc(-c3cc(C)cc(F)c3)c(N3CC[C@H](N)[C@H](O)C3)c2c1 (relative stereo) [2-220, cis-3-{4-[4-amino-3-hydroxypiperidin-1-yl]-3-(3-fluoro-5-methylphenyl)quinolin-6-yl}-5-fluoro-2-(2-methoxyethoxy)benzonitrile]	< 10 nM	–
CON=Cc1cccc(-c2ccc3ncc(-c4cc(C)cc(F)c4)c(N4CC[C@H]5NCCO[C@@H]5C4)c3c2)c1O (relative stereo) [2-221, 2-{4-[trans-octahydro-1H-pyrido[3,4-b]morpholin-6-yl]-3-(3-fluoro-5-methylphenyl)quinolin-6-yl}-6-[(methoxyimino)methyl]phenol]	< 10 nM	–
COCCOc1c(C#N)cccc1-c1ccc2ncc(-c3cc(F)cc(F)c3)c(N3CC[C@H](N)[C@H](O)C3)c2c1 (relative stereo) [2-225, cis-3-{4-[4-amino-3-hydroxypiperidin-1-yl]-3-(3,5-difluorophenyl)quinolin-6-yl}-2-(2-methoxyethoxy)benzonitrile]	< 10 nM	–
COCCOc1c(C#N)cc(F)cc1-c1ccc2ncc(-c3cc(F)cc(F)c3)c(N3CC[C@H](N)[C@H](O)C3)c2c1 (relative stereo) [2-232, cis-3-{4-[4-amino-3-hydroxypiperidin-1-yl]-3-(3,5-difluorophenyl)quinolin-6-yl}-5-fluoro-2-(2-methoxyethoxy)benzonitrile]	< 10 nM	–

From patent US10351547B2, “Somatostatin modulators and uses thereof” (priority 2016, dated 2019)
